These results are taken from patent US10494597B2, “Contamination mitigation” (Butamax Advanced Biofuels LLC, priority 2014, dated 2019).

The test system of assay [1] is yeast (e.g., Saccharomyces). As to conditions: at comparable concentrations; cited from earlier work.
For assay [2], the system named is cell inoculum (shake flask culture). Put plainly: Shake flask culture with crude COFA with or without BHT, YSI glucose measurements. The following applies: BHT 0 wt % (control) to 5 wt % in crude COFA; 50% v/v COFA; 40 g/L glucose synthetic medium; 30° C., 260 rpm. Format: cell-based. How it is done:
In an experimental example, a cell inoculum originated from a 72 hour seed flask with a 30 g/L synthetic medium. The culture was inoculated into 40 g/L glucose in synthetic medium. […] The flasks were incubated in a thirty degree Celsius (30° C.), 260 revolutions per minute (rpm) shaker. One to one point five milliliter (1-1.5) mL samples were taken at points in time.

In assay [3] the test system is gram-positive and gram-negative bacteria (e.g., lactobacillus). The following applies: cited from earlier work.

In the case of `Cc1cc(C(C)(C)C)c(O)c(C(C)(C)C)c1` [BHT, butylated hydroxytoluene], in assay [1], the effect on yeast entry was “does not affect yeast”. Besides, the glucose consumption entry in assay [2] is “No difference in glucose consumption was observed”. In assay [3], the “antimicrobial activity to gram-positive and gram-negative bacteria” value is given as “exhibits antimicrobial activity”.
